Measured values as given in ChEMBL document CHEMBL4602660, “Kinase-Inhibitory Nucleoside Derivatives from the Pacific Bryozoan Nelliella nelliiformis” (J Nat Prod, 2020).
Active and inactive are the calls of the source. The calls are words filed in the database; no cut-off is given here.

Assays:
[1] = target: T1, Glycogen synthase kinase-3 alpha (Homo sapiens, UniProt P49840); test: Inhibition of N-Terminal GST tagged human GSK3A expressed in baculovirus expression system at 10 uM after 1 hr by Z'-LYTE assay relative to control
Target sequence in this assay (P49840 2-483 limits assumed): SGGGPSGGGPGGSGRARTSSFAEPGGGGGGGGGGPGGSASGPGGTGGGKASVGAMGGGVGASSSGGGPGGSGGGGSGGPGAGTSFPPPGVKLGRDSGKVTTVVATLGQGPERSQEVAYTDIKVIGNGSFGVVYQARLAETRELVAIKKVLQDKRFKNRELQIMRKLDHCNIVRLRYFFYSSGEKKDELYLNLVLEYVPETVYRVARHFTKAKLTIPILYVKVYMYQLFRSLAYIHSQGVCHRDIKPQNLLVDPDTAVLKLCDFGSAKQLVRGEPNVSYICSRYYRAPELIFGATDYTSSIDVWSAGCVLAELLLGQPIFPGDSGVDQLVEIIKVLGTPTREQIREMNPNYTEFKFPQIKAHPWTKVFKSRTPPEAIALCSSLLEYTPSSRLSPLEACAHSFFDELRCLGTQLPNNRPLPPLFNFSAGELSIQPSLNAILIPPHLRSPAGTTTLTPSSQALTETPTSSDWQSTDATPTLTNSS

[2] = target: MAP kinase-activated protein kinase 2 (Homo sapiens) (UniProt P49137); test: Inhibition of His-tagged human MAPKAPK2 expressed in Escherichia coli at 10 uM after 1 hr by Z'-LYTE assay relative to control
[3] = target: T1, Glycogen synthase kinase-3 alpha; test: Inhibition of N-Terminal GST tagged human GSK3A expressed in baculovirus expression system after 1 hr by Z'-LYTE assay
Target sequence in this assay (P49840 whole entry): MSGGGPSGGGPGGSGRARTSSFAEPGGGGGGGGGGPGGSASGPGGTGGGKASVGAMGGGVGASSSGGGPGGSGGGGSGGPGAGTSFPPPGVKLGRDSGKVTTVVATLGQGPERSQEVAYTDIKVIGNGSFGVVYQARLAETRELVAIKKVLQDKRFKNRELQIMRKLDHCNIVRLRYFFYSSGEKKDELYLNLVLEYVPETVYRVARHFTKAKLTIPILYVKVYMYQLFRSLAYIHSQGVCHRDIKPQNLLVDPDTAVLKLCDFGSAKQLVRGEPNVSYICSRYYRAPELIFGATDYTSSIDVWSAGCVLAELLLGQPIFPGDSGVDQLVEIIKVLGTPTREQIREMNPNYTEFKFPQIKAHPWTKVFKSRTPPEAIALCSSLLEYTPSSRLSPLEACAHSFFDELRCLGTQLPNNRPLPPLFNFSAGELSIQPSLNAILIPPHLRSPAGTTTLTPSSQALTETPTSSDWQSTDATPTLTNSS

[4] = target: T2, Ribosomal protein S6 kinase alpha-3 (Homo sapiens, UniProt P51812); test: Inhibition of His-tagged recombinant human RSK2 expressed in baculovirus expression system after 1 hr by Z'-LYTE assay
[5] = target: MAP kinase-activated protein kinase 3 (Homo sapiens) (UniProt Q16644); test: Inhibition of His-tagged human MAPKAPK3 expressed in baculovirus expression system at 10 uM after 1 hr by Z'-LYTE assay relative to control
[6] = target: Glycogen synthase kinase-3 beta (Homo sapiens) (UniProt P49841); test: Inhibition of N-Terminal His tagged human GSK3B expressed in baculovirus expression system at 10 uM after 1 hr by Z'-LYTE assay relative to control
[7] = target: T3, Mitogen-activated protein kinase 14 (Homo sapiens, UniProt Q16539); test: Inhibition of human MAPK14 expressed in Escherichia coli at 10 uM after 1 hr by Z'-LYTE assay relative to control
[8] = target: T2, Ribosomal protein S6 kinase alpha-3; test: Inhibition of His-tagged recombinant human RSK2 expressed in baculovirus expression system at 10 uM after 1 hr by Z'-LYTE assay relative to control
HL-60 = test: Cytotoxicity against human HL60 cells up to 10 uM; assay type: functional, cell-based
Staphylococcus aureus = test: Antibacterial activity against Staphylococcus aureus up to 100 ug/ml; assay type: functional, organism-based
[9] = target: Maternal embryonic leucine zipper kinase (Homo sapiens) (UniProt Q14680); test: Inhibition of GST tagged human MELK expressed in baculovirus expression system at 10 uM after 1 hr by Z'-LYTE assay relative to control
Saccharomyces cerevisiae = test: Antifungal activity against Saccharomyces cerevisiae; assay type: functional, organism-based
[10] = target: T3, Mitogen-activated protein kinase 14; test: Inhibition of human MAPK14 expressed in Escherichia coli after 1 hr by Z'-LYTE assay

T3 sequence (Q16539 whole entry): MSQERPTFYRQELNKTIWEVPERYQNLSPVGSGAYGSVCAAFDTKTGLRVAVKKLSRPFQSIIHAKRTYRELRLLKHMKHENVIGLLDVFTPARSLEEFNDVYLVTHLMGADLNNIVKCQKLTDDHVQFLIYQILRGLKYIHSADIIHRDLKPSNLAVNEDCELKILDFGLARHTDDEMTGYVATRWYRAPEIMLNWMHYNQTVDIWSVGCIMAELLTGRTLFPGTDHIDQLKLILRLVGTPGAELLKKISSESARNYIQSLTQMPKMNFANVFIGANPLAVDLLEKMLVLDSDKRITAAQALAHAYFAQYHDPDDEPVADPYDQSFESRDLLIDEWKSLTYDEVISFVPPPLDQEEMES
Chain of Maternal embryonic leucine zipper kinase (Homo sapiens) (Q14680 whole entry, looked up): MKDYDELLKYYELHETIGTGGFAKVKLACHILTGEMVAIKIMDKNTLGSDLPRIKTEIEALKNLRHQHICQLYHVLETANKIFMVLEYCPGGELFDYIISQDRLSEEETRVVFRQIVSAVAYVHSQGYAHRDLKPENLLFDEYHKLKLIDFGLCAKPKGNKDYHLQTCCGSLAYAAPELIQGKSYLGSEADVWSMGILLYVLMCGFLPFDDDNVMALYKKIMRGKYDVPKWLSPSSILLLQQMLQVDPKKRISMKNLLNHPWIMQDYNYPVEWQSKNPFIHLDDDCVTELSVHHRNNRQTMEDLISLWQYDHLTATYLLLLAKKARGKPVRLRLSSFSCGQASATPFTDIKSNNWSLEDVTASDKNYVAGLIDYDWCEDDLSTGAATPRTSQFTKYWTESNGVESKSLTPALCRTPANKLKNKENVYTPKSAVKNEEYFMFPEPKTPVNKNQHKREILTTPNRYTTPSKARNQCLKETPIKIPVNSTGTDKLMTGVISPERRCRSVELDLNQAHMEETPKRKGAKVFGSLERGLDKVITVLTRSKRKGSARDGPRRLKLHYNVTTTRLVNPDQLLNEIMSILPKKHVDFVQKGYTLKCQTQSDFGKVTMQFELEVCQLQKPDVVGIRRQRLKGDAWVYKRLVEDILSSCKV
Chain of MAP kinase-activated protein kinase 3 (Homo sapiens) (Q16644 whole entry, looked up): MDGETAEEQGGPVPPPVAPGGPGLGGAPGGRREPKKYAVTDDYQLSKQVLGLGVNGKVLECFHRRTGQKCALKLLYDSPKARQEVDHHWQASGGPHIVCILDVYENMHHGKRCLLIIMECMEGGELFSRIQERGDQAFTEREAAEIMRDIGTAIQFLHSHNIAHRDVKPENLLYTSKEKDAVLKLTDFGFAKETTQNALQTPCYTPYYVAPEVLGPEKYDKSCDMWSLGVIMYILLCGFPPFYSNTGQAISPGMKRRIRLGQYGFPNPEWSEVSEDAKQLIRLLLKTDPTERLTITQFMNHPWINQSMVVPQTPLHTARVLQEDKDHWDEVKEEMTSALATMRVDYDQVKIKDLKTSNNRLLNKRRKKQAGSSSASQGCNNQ
Chain of Glycogen synthase kinase-3 beta (Homo sapiens) (P49841 whole entry, looked up): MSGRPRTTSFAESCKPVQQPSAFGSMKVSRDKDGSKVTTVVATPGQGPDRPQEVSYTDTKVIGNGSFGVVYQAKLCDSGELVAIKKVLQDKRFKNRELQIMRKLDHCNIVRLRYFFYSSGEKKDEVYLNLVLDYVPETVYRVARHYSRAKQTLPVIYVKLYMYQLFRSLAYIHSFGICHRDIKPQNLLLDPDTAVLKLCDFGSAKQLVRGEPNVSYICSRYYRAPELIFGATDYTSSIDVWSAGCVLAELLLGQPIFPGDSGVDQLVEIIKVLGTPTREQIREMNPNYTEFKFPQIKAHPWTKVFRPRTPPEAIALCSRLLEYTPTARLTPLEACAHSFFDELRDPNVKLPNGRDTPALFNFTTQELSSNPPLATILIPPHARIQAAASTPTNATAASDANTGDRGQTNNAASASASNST
T2 sequence (P51812 whole entry): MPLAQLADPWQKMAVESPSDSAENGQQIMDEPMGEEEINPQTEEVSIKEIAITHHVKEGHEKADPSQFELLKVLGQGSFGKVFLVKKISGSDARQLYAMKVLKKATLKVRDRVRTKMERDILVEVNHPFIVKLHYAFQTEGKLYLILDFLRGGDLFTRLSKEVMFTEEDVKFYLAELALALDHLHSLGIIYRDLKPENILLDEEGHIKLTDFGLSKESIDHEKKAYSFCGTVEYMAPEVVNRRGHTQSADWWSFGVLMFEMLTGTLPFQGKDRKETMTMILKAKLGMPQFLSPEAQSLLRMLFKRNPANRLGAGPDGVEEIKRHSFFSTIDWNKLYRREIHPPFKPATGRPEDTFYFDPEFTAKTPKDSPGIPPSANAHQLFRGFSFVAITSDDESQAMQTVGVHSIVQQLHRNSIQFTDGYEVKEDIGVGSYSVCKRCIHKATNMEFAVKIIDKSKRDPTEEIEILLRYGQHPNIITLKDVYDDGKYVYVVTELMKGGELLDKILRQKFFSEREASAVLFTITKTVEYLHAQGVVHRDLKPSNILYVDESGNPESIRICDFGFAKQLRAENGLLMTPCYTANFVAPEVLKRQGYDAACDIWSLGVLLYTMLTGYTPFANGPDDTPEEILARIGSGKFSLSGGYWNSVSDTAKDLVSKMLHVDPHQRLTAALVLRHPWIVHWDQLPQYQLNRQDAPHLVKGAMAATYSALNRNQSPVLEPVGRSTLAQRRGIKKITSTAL
Chain of MAP kinase-activated protein kinase 2 (Homo sapiens) (P49137 whole entry, looked up): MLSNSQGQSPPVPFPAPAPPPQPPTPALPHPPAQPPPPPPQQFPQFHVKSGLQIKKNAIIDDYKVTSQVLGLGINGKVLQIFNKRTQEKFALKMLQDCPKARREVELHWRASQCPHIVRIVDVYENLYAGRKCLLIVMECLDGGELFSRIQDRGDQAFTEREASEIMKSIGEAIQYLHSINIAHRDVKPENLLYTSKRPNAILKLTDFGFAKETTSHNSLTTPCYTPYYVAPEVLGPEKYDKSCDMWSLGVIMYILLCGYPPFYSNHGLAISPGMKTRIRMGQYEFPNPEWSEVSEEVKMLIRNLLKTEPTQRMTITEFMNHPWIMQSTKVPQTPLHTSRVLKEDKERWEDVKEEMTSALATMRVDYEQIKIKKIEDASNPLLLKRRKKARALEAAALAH

inhibition [1] [%]	inhibition [2] [%]	IC50 [3] [nM]	IC50 [4] [nM]	inhibition [5] [%]	inhibition [6] [%]	inhibition [7] [%]	inhibition [8] [%]	inhibition [9] [%]	IC50 [10] [nM]	SMILES	Activity (HL-60)	Activity (Staphylococcus aureus)	Activity (Saccharomyces cerevisiae)
101	87	1000	970	98	98	95	94	98	1710	Nc1ncnc2c1ncn2[C@@H]1O[C@H](COC(=O)c2cc[nH]c2)[C@@H](O)[C@H]1O	inactive	inactive	inactive
98	88	710	660	101	98	93	96	96	950	Nc1nc2c(ncn2[C@@H]2O[C@H](COC(=O)c3ccc[nH]3)[C@@H](O)[C@H]2O)c(=O)[nH]1	inactive	inactive	inactive
100	89	610	640	100	99	95	95	97	870	O=C(OC[C@H]1O[C@@H](n2cnc3c(=O)[nH]cnc32)[C@H](O)[C@@H]1O)c1cc[nH]c1	inactive	inactive	inactive
94	42	1110	230	83	94	95	102	97	1320	O=C(OC[C@H]1O[C@@H](n2cnc3c(=O)[nH]cnc32)[C@H](O)[C@@H]1O)c1ccc[nH]1	inactive	inactive	inactive
99	95	890	800	98	100	95	96	95	1000	Nc1ncnc2c1ncn2[C@@H]1O[C@H](COC(=O)c2ccc[nH]2)[C@@H](O)[C@H]1O	inactive	inactive	inactive
93	82	670	680	99	96	84	93	87	990	Nc1nc2c(ncn2[C@@H]2O[C@H](COC(=O)c3cc[nH]c3)[C@@H](O)[C@H]2O)c(=O)[nH]1	inactive	inactive	inactive
